Measured values published in US10681909B2, “Herbicidal triazoles” (FMC Corporation, priority 2014, dated 2020).

Legend:
horseweed [1] = assay: Test E preemergence; format: in vivo, Conyza canadensis; details: scale 0 to 100
Text: (§1) Seeds of plant species selected from corn (Zea mays), soybean (Glycine max), lambsquarters (Chenopodium album), poinsettia, wild (wild poinsettia, Euphorbia heterophylla), pigweed, palmer (palmer pigweed, Amaranthus palmeri), waterhemp (common waterhemp, Amaranthus rudis), surinam grass (Brachiaria decumbens), crabgrass, large (large crabgrass, Digitaria sanguinalis), crabgrass, Brazilian (Brazilian crabgrass, Digitaria horizontalis), panicum, fall (fall panicum, Panicum dichotomiflorum), foxtail, giant (giant foxtail, Setaria faberii), foxtail, green (green foxtail, Setaria viridis), goosegrass (Eleusine indica), johnsongrass (Sorghum halepense), ragweed (common ragweed, Ambrosia elatior), barnyardgrass (Echinochloa crus-galli), sandbur (southern sandbur, Cenchrus echinatus), arrowleaf sida (Sida rhombifolia), ryegrass, Italian (Italian ryegrass, Lolium multiflorum), dayflower, VA (Virginia dayflower, Commelina virginica), field bindweed (Convolvulus arvensis), cocklebur (common cocklebur, Xanthium strumarium), morningglory (Ipomoea coccinea), nightshade (eastern black nightshade, Solanum ptycanthum), kochia (Kochia scoparia), nutsedge, yellow (yellow nutsedge, Cyperus esculentus), smartweed (ladysthumb smartweed, Polygonum persicaria), velvetleaf (Abutilon theophrasti), horseweed (Conyza canadensis), and beggarticks (hairy beggarticks, Bidens pilosa), were planted into a silt loam soil and treated preemergence with test chemicals formulated in a non-phytotoxic solvent mixture which included a surfactant.
(§2) At the same time, plants from these crop and weed species and also waterhemp_RES1, (ALS & Triazine resistant common waterhemp, Amaranthus rudis), and waterhemp_RES2, (ALS & HPPD resistant common waterhemp, Amaranthus rudis) were planted in pots containing Sunshine Redi-Earth® planting medium comprising spaghnum peat moss, vermiculite, starter nutrients and dolomitic limestone were treated with postemergence applications of test chemicals formulated in the same manner. Plants ranged in height from 2 to 18 cm for postemergence treatments (1- to 4-leaf stage). Treated plants and controls were maintained in a greenhouse for 14 to 21 d, after which time all species were compared to controls and visually evaluated. Plant response ratings, summarized in Table E, are based on a scale of 0 to 100 where 0 is no effect and 100 is complete control. A dash (-) response means no test result.

smartweed [2] = assay: Test E postemergence; format: in vivo, Polygonum persicaria; details: scale 0 to 100
Protocol: […]
as §2, with “Plants ranged in height from 2 to 18 cm for postemergence treatments (1- to 4-leaf stage).” left out, “Plant response ratings, summarized in Table E, are based on a scale of 0 to 100 where 0 is no effect and 100 is complete control. A dash (-) response means no test result.” left out

cocklebur = assay: Test E preemergence; format: in vivo, Xanthium strumarium; details: scale 0 to 100
Text: as §1, §2

poinsettia, wild = assay: Test E postemergence; format: in vivo, Euphorbia heterophylla; details: scale 0 to 100
Text: as §1, §2

smartweed [3] = assay: Test E preemergence; format: in vivo, Polygonum persicaria; details: scale 0 to 100
Text: as §1, §2

barnyardgrass = assay: Test C flooded paddy test; format: in vivo, Echinochloa crus-galli; details: Flood, applied to paddy water, rating after 13 to 15 d
Text: (§3) At time of treatment, test pots were flooded to 3 cm above the soil surface, treated by application of test compounds directly to the paddy water, and then maintained at that water depth for the duration of the test. Treated plants and controls were maintained in a greenhouse for 13 to 15 d, after which time all species were compared to controls and visually evaluated. […] A dash (-) response means no test result.

ducksalad = assay: Test C flooded paddy test; format: in vivo, Heteranthera limosa; details: Flood, applied to paddy water, rating after 13 to 15 d
Text: as §3

rice = assay: Test C flooded paddy test; format: in vivo, Oryza sativa; details: Flood, applied to paddy water, rating after 13 to 15 d
Text: as §3

sedge, umbrella = assay: Test C flooded paddy test; format: in vivo, Cyperus difformis; details: Flood, applied to paddy water, rating after 13 to 15 d
Text: as §3

horseweed [4] = assay: Test E postemergence; format: in vivo, Conyza canadensis; details: scale 0 to 100
Text: as §1, §2

Structure (SMILES): Fc1ccc(-c2nc(OCC(F)(F)F)n(Cc3ccnc(C(F)(F)F)c3)n2)cc1 [Compound 30]
- Plant response rating (horseweed [1]; 31 g ai/ha): 100
- Plant response rating (horseweed [1]; 62 g ai/ha): 100
- Plant response rating (horseweed [1]; 125 g ai/ha): 100
- Plant response rating (horseweed [1]; 250 g ai/ha): 100

Structure (SMILES): CCc1nc(-c2ccc(C(F)(F)F)cc2)nn1Cc1ccnc(C(F)(F)F)c1 [Compound 1, 4-[[5-ethyl-3-[4-(trifluoromethyl)phenyl]-1H-1,2,4-triazol-1-yl]methyl]-2-(trifluoromethyl)pyridine]
- Plant response rating (smartweed [2]; 125 g ai/ha): 30
- Plant response rating (smartweed [2]; 250 g ai/ha): 80
- Plant response rating (cocklebur; 16 g ai/ha): 0
- Plant response rating (cocklebur; 31 g ai/ha): 0
- Plant response rating (cocklebur; 62 g ai/ha): 0
- Plant response rating (cocklebur; 125 g ai/ha): 10
- Plant response rating (cocklebur; 250 g ai/ha): 30
- Plant response rating (poinsettia, wild; 16 g ai/ha): 60
- Plant response rating (poinsettia, wild; 31 g ai/ha): 70
- Plant response rating (poinsettia, wild; 62 g ai/ha): 75
- Plant response rating (poinsettia, wild; 125 g ai/ha): 80
- Plant response rating (poinsettia, wild; 250 g ai/ha): 90
- Plant response rating (smartweed [3]; 16 g ai/ha): 25
- Plant response rating (smartweed [3]; 31 g ai/ha): 40
- Plant response rating (smartweed [3]; 62 g ai/ha): 50
- Plant response rating (smartweed [3]; 125 g ai/ha): 60
- Plant response rating (smartweed [3]; 250 g ai/ha): 80

Structure (SMILES): Cn1nc(-c2ccc(F)cc2)nc1Oc1cccc(C(F)(F)F)c1 [Compound 5, 3-(4-fluorophenyl)-1-methyl-5-[3-(trifluoromethyl)phenoxy]-1H-1,2,4-triazole]
- Barnyardgrass plant response rating (0 to 100) (barnyardgrass; 31 g ai/ha): 10
- Barnyardgrass plant response rating (0 to 100) (barnyardgrass; 62 g ai/ha): 10
- Barnyardgrass plant response rating (0 to 100) (barnyardgrass; 125 g ai/ha): 15
- Barnyardgrass plant response rating (0 to 100) (barnyardgrass; 250 g ai/ha): 15
- Ducksalad plant response rating (0 to 100) (ducksalad; 31 g ai/ha): 20
- Ducksalad plant response rating (0 to 100) (ducksalad; 62 g ai/ha): 30
- Ducksalad plant response rating (0 to 100) (ducksalad; 125 g ai/ha): 40
- Ducksalad plant response rating (0 to 100) (ducksalad; 250 g ai/ha): 60
- Rice plant response rating (0 to 100) (rice; 31 g ai/ha): 0
- Rice plant response rating (0 to 100) (rice; 62 g ai/ha): 0
- Rice plant response rating (0 to 100) (rice; 125 g ai/ha): 0
- Rice plant response rating (0 to 100) (rice; 250 g ai/ha): 0
- Sedge, Umbrella plant response rating (0 to 100) (sedge, umbrella; 31 g ai/ha): 0
- Sedge, Umbrella plant response rating (0 to 100) (sedge, umbrella; 62 g ai/ha): 0
- Sedge, Umbrella plant response rating (0 to 100) (sedge, umbrella; 125 g ai/ha): 20
- Sedge, Umbrella plant response rating (0 to 100) (sedge, umbrella; 250 g ai/ha): 40

Structure (SMILES): COc1nc(-c2ccc(Cl)cc2)nn1Cc1ccnc(C(F)(F)F)c1 [Compound 28]
- Plant response rating (horseweed [4]; 31 g ai/ha): 20
- Plant response rating (horseweed [4]; 62 g ai/ha): 20
- Plant response rating (horseweed [4]; 125 g ai/ha): 35
- Plant response rating (horseweed [4]; 250 g ai/ha): 40

Structure (SMILES): CCCc1nc(-c2ccc(F)cc2)nn1Cc1ccnc(C(F)(F)F)c1 [Compound 6, 4-[[3-(4-fluorophenyl)-5-propyl-1H-1,2,4-triazol-1-yl]methyl]-2-(trifluoromethyl)pyridine]
- Plant response rating (cocklebur; 16 g ai/ha): 0
- Plant response rating (cocklebur; 31 g ai/ha): 0
- Plant response rating (cocklebur; 62 g ai/ha): 0
- Plant response rating (cocklebur; 250 g ai/ha): 10
- Plant response rating (smartweed [3]; 16 g ai/ha): 20
- Plant response rating (smartweed [3]; 31 g ai/ha): 50
- Plant response rating (smartweed [3]; 62 g ai/ha): 60
- Plant response rating (smartweed [3]; 125 g ai/ha): 95
- Plant response rating (smartweed [3]; 250 g ai/ha): 95
